{"source": "patent US10226514B2", "about": "“Methods and compositions for reducing blood glucose levels” (The Children's Medical Center Corporation, priority 2011, dated 2019)", "key": {"[1]": {"system": "XBP1s", "experiment": "XBP1s protein degradation after cycloheximide", "assay_type": "cell-based, mouse", "details": "anisomycin 25 ng/ml two hours, then cycloheximide 10 μg/ml, vs vehicle", "protocol": "MEF cells were infected with Ad-XBP1s. After 24 h post-infection, cells were treated with anisomycin at 25 ng/ml or vehicle (DMSO) for 2 h. Translation […] inhibitor cycloheximide (10 μg/ml, Sigma) was added to the medium. Cells were flash frozen in liquid nitrogen at various time points. Protein levels were determined via immunoblotting."}, "[2]": {"system": "XBP1s", "experiment": "XBP1s phosphorylation at Thr48 and Ser61 in cells (MS/MS, phospho-specific antibodies)", "assay_type": "cell-based, mouse", "details": "anisomycin 25 ng/ml", "protocol": "MEFs were infected with flag-tagged XBP1s expressing adenovirus and treated with anisomycin (25 ng/ml) for 2 h. Cells were washed with ice-cold PBS and lysed with RIPA buffer (50 mM Tris-HCl, pH 7.5; 2 mM EGTA; 0.3% CHAPS; 100 mM NaF; 10 mM Na4P2O7; 1 mM Na3VO4; 10 μg/ml Leupeptin; 10 μg/ml Aprotinin; 2 mM PMSF and 20 nM Okadaic acid). After overnight incubation with anti-flag antibody, Protein A sepharose beads were added for additional 2 h at 4° C. Immunoprecipates were washed three times with RIPA buffer containing 150 mM NaCl and boiled for 5 min in 2× Laemmli buffer for elution of immunoprecipitated XBP1s. Samples were resolved in SDS-PAGE and stained with Coomassie blue (Bio-Rad). Protein from Coomassie-stained gel bands was digested with trypsin and the resulting peptide mixtures were subjected to microcapillary liquid chomatography tandem mass spectrometry (LC-MS/MS). MS/MS spectra were assigned by searching them with the XBP1s protein sequence using the SEQUEST algorithm.\nSimilar results were obtained from XBP1s^Ser61 phosphorylation."}, "[3]": {"system": "p38 MAPK", "experiment": "p38 MAPK phosphorylation in anisomycin-treated knock-out cells", "assay_type": "cell-based", "from_the_text": "It is known that MAPK kinase kinase (MKK) 4 and 7 are upstream kinases responsible for JNK activation (Tournier, C., et al. (2001) Genes Dev 15:1419-1426; Brancho, D., et al. (2003) Genes Dev 17:1969-1978) and anisomycin or TNFα cannot activate JNK in MKK4 and 7 double knock out cells (MKK4,7^−/−) (Tournier, C., et al. (2001) Genes Dev 15:1419-1426; Schaeffer, H. J. & Weber, M. J. (1999) Mol Cell Biol 19:2435-2444). In order to determine whether XBP1s can be regulated by anisomycin treatment in MKK4,7^−/− cells, these cells, along with their controls, were treated with anisomycin after XBP is expression. […] Furthermore, the experiments were repeated in JNK1,2^−/− and MKK4,7^−/− cells with TNFα. […] Finally, an MKK7-JNK1 fusion protein, previously shown to be a specific activator of JNK (Lei, K., et al. (2002) Mol Cell Biol 22:4929-4942), was used to investigate whether activation of JNK alone can have effect on XBP1s."}, "[4]": {"system": "XBP1s", "experiment": "XBP1s protein levels in Ad-XBP1s-infected MEFs (western blot)", "assay_type": "cell-based, mouse", "protocol": "MEF cells were from American Type Tissue Collection (ATCC). These cells were grown in Dulbecco's Modified Eagel Medium (DMEM) supplemented with 10% fetal bovine serum (FBS), 10 U/ml penicillin and 1 μg/ml streptomycin at 37° C. and 5% CO2. Fao cells were maintained in RPMI 1640 medium (Invitrogen) supplemented with 10% fetal bovine serum (FBS), 10 U/ml penicillin and 1 μg/ml streptomycin.\nAdenovirus expressing XBP1s T48A, XBP1s S61A, XBP1s T48A/S61A and MKK6Glu were produced with ViraPower Adenoviral Expression System (Invitrogen) according to manufacturer's instruction. Briefly, pAD-XBP1s T48A, pAD-XBP1s S61A, pAd-XBP1s T48A/S61A and pAd-MKK6Glu were linearized by restriction endonuclease digestion with PacI and transfected to 293A cells by Lipofectamine. The media was changed with fresh media every other day until the cytopathic effect was observed. When cytopathic effect reached to 80%, cells were collected by centrifugation. The pellet was resuspended in PBS and subjected to freezing and thawing cycles at −80° C. and 37° C. for 4 times. The supernatant containing the virus was prepared by centrifugation at 4,000 rpm for 20 min at room temperature. Ad-XBP s and Ad-Cre were generated as described previously (Ozcan, L., et al. (2009) Cell metabolism 9:35-51). For infection, cells were incubated with adenovirus in reduced volume of medium containing 1% FBS and antibiotics. Cells were gently rocked every 15 min for 1 h to increase efficiency of infection, and then fresh medium were added and cells were incubated for additional 15 h or 23 h.\nCells were lysed in lysis buffer (25 mM Tris-HCl, pH 7.4; 10 mM NaF; 10 mM Na4P207; 2 mM Na3VO4; 1 mM EGTA; 1 mM EDTA; 1% NP-40; 10 μg/ml Leupeptin; 10 μg/ml Aprotinin; 1 mM PMSF and 20 nM Okadaic acid). After 20 min-rotation at 4° C., cell lysates were centrifuged at 13,200 rpm for 20 min at 4° C. Supernatants were collected and protein concentration was quantified by using Protein Assay Kit (Bio-Rad). The concentrations of protein were normalized with lysis buffer to have equivalent amounts of protein and volume. Protein was denatured by boiling at 100° C. for 5 min in Laemmli buffer. The lysates were cooled to room temperature before loading for western blot analysis.\nWestern blot analysis was performed as previously described (Ozcan, L., et al. (2009) Cell metabolism 9:35-51). Samples from cell lysates or tissue lysates were resolved by SDS-PAGE and then transferred to polyvinylidene fluoride (PVDF) membrane. After 1 h blocking at room temperature using 10% blocking reagent (Roche), membrane was incubated overnight with primary antibody in Tris-buffered saline solution/Tween (TBST) containing 10% blocking reagent at 4° C. After the incubation, membrane was washed three times in TBST and incubated with secondary antibody for 1 h at room temperature. After three-time washing in TBST, membrane was developed using a chemiluminescence assay system (Roche) and exposed to Kodak films. Relative protein levels were quantified by Image J program."}}, "note": "Entries after “also recorded” stand apart in the source; their conditions may differ.", "data": [{"smiles": "COc1ccc(C[C@H]2NC[C@H](O)[C@H]2OC(C)=O)cc1", "note": "[anisomycin]", "values": [{"measurement": "degradation rate of XBP1s protein", "setting": "[1]", "result": "No differences in the degradation rate of XBP1s protein"}, {"measurement": "phosphorylation of XBP1s at Ser61", "setting": "[2]", "result": "increases phosphorylation of XBP1s at Ser61; also recorded: strongly induced phosphorylation of XBP1s at Ser61"}, {"measurement": "phosphorylation of XBP1s at Thr48", "setting": "[2]", "result": "greatly increased phosphorylation of the Thr48 residue"}, {"measurement": "p38 MAPK phosphorylation", "setting": "[3]; JNK1,2−/− cells", "result": "marked increase in p38 MAPK phosphorylation"}, {"measurement": "p38 MAPK activation", "setting": "[3]; MKK4,7−/− cells", "result": "significantly increased"}, {"measurement": "XBP1s protein levels", "setting": "[4]; Ad-XBP1s-infected MEFs, increasing doses, two hours", "result": "robust increase in XBP1s protein levels"}, {"measurement": "XBP1s protein levels", "setting": "[4]; Ad-XBP1s-infected MK2−/− cells vs control cells", "result": "dramatically reduced"}, {"measurement": "XBP1s levels", "setting": "[4]; Ad-XBP1s-infected MKK3,6−/− cells", "result": "no increase in XBP1s levels"}, {"measurement": "XBP1s levels", "setting": "[4]; Ad-XBP1s-infected p38α−/− cells", "result": "lacked the ability to upregulate XBP1s levels"}, {"measurement": "XBP1s protein levels", "setting": "[4]; JNK1,2−/− cells", "result": "significant increase in XBP is protein"}, {"measurement": "XBP1s levels", "setting": "[4]; MKK4,7−/− cells", "result": "dramatically increased XBP1s levels"}, {"measurement": "XBP1s proteins in Ad-LacZ-infected control cells", "setting": "[4]; up to 25 ng/ml anisomycin", "result": "No upregulation of XBP1s proteins"}]}]}
